# Peptide text beside a SMILES is read from it. * marks the point of attachment. Hica(2S) = CC(C)C[C@H](O)C(=O)O; Boc = CC(C)(C)OC(=O)*
# Assays:
# [1] = biological target: Delta-type opioid receptor (Homo sapiens, UniProt P41143)
# Mu-type opioid receptor = Mu-type opioid receptor (Homo sapiens, UniProt P35372)
# [2] = biological target: Kappa-type opioid receptor (Homo sapiens, UniProt P41145)
# A549 = assay: Cytotoxicity against human A549 cells incubated for 96 hrs by MTT assay; assay type: functional, cell-based; conditions: A549, 96 h
# HeLa = assay: Cytotoxicity against human HeLa cells incubated for 96 hrs by MTT assay; assay type: functional, cell-based
# CAKI-2 = assay: Cytotoxicity against human Caki-2 cells incubated for 96 hrs by MTT assay; assay type: functional, cell-based; conditions: CAKI-2, 96 h
# HL-60 [3] = assay: Cytotoxicity activity against human HL-60 cells incubated for 96 hrs by MTT assay; assay type: functional, cell-based; conditions: HL-60, 96 h
# PC-3 [4] = assay: Cytotoxicity activity against human PC-3 cells incubated for 96 hrs by MTT method; assay type: functional, cell-based; conditions: PC-3, 96 h
# [5] = biological target: T1, Delta-type opioid receptor (Mus musculus, UniProt P32300); assay: Inhibition of [3H]-Deltorphin 2 binding to mouse delta opioid receptor expressed in HEK293 cell membranes incubated for 60 mins by Cheng-Prusoff analysis; parameters: species or system Cell membrane
# [6] = system: Human immunodeficiency virus 1; assay: Antiviral activity against HIV1 3b isolate infected in human MT4 cells assessed as blockade of viral spread pretreated for 24 hrs followed by viral infection and subsequently treated with compound every 2 to 3 days post infection by ELISA; assay type: functional; conditions: Human immunodeficiency virus 1, 3b isolate, read-out: CIC95
# [7] = biological target: Human immunodeficiency virus type 1 protease (Human immunodeficiency virus 1, UniProt Q72874); assay: Inhibition of HIV1 protease
# [8] = Antagonist activity at bombesin receptor in Sprague-Dawley rat pancreatic acini assessed as inhibition of bombesin-induced amylase release incubated for 30 mins; assay type: tissue-based, Pancreas
# [9] = biological target: Gastrin/cholecystokinin type B receptor (Homo sapiens) (UniProt P32239); assay: Agonist activity at CCKBR in human NCI-H345 cells assessed as calcium release relative to control; assay type: functional, cell-based; conditions: filed as agonist
# [10] = Inhibition of [125]BH-CCK8 binding to guinea pig cortex CCKBR by radioligand binding assay; assay type: tissue-based, Cavia porcellus
# [11] = biological target: Cholecystokinin receptor type A (Cavia porcellus, UniProt Q63931); assay: Inhibition of [125]BH-CCK8 binding to guinea pig pancreas CCKAR by radioligand binding assay; assay type: tissue-based
# [12] = biological target: Gastrin/cholecystokinin type B receptor (Homo sapiens, UniProt P32239); assay: Agonist activity at CCKBR in human NCI-H345 cells assessed as calcium release; assay type: functional, cell-based
# Rattus norvegicus = assay: Hypocholesterolemic activity in cholestrol fed Sprague-Dawley rat assessed as decrease in total cholesterol at 0.05%, po administered for 1 week; assay type: functional; parameters: scale not given: the % may be the effect or the level left; conditions: time 1 weeks
# [13] = Inhibition of ACAT in cholesterol-fed New Zealand rabbit intestional microsomes using [1-14C]oleoyl-CoA as substrate preincubated for 5 mins followed by substrate addition and measured after 5 mins by liquid scintillation counting method; parameters: species or system Oryctolagus cuniculus, Intestine, Microsome
# [14] = Half-life in Sprague-Dawley rat plasma at 50 uM measured by LC-MS/MS analysis; assay type: ADME, cell-free
# [15] = Half-life in human plasma at 50 uM measured by LC-MS/MS analysis; assay type: ADME, cell-free
# [16] = biological target: Protein-S-isoprenylcysteine O-methyltransferase (Homo sapiens, UniProt O60725); assay: Inhibition of human isoprenylcysteine carboxyl methyltransferase expressed in Saccharomyces cerevisiae membranes using AFC as substrate in presence of 14C-SAM incubated for 30 min by scintillation counting method; assay type: cell membranes, Cell membrane
# clinical = conditions: human
# HT-29 = assay: Cytotoxicity against human HT-29 cells incubated for 96 hrs by MTT assay; assay type: functional, cell-based; conditions: HT-29, 96 h
# PC-3 [17] = assay: Cytotoxicity against human PC-3 cells incubated for 96 hrs by MTT assay; assay type: functional, cell-based; conditions: PC-3, 96 h
# HL-60 [18] = assay: Cytotoxicity against human HL-60 cells incubated for 96 hrs by MTT assay; assay type: functional, cell-based; conditions: HL-60, 96 h
# [19] = biological target: T1, Delta-type opioid receptor; assay: Inhibition of [3H]-Deltorphin 2 binding to mouse delta opioid receptor expressed in rat GH3 cell membranes by Cheng-Prusoff analysis; parameters: species or system Cell membrane
# [20] = Half life in Sprague-Dawley rat plasma measured after 60 mins by HPLC method; assay type: ADME, cell-free
# [21] = biological target: T1, Delta-type opioid receptor; assay: Agonist activity at delta opioid receptor in mouse vas deferens assessed as inhibition of electric-field induced measured after 5 mins; assay type: tissue-based
# Interstitial collagenase = Interstitial collagenase (Homo sapiens, UniProt P03956); assay: Inhibition of PMA-induced human skin fibroblast derived MMP1 by fluorometric assay; assay type: tissue-based
# Matrilysin = Matrilysin (Homo sapiens, UniProt P09237); assay: Inhibition of human MMP7 by fluorometric assay
# [22] = biological target: 72 kDa type IV collagenase (Homo sapiens, UniProt P08253); assay: Inhibition of TNF-induced MMP2 isolated from human HT-1080 cell medium by fluorometric assay; assay type: tissue-based
# [23] = Oral bioavailability in rat at 30 mg/kg; assay type: ADME, organism-based; conditions: in vivo
# [24] = Half life in rat at 30 mg/kg, po; assay type: ADME, organism-based; conditions: in vivo
# Stromelysin-1 = Stromelysin-1 (Homo sapiens, UniProt P08254); assay: Inhibition of human MMP3 by fluorometric assay
# Human betaherpesvirus 5 = assay: Antiviral activity against HCMV infected in human Hs68 cells by plaque reduction assay; assay type: functional, cell-based; conditions: Human betaherpesvirus 5, Hs68
# Neprilysin = Neprilysin (Homo sapiens, UniProt P08473); assay: Inhibition of NEP 24.11 (unknown origin) by fluorometric assay
# MDA-MB-231 [25] = assay: Antitumor activity against human MDA-MB-231 cells xenografted in nude mouse assessed as reduction in tumor volume at 90 mg/kg, ip administered for 15 days (reference value: 550 +/- 98.6 mm3); assay type: functional; conditions: time 15 day
# MDA-MB-231 [26] = assay: cells; conditions: Homo sapiens, MDA-MB-231, 24 h
# [27] = biological target: T2, Transient receptor potential cation channel subfamily V member 1 (Homo sapiens, UniProt Q8NER1)
# [28] = biological target: T2, Transient receptor potential cation channel subfamily V member 1; assay: Antagonist activity at human recombinant TRPV1 expressed in HEK293 cells assessed as effect on intracellular calcium level by FLOU-4 dye based fluorescence spectrometry; assay type: cell-based
# Cannabinoid receptor 1 = Cannabinoid receptor 1 (Homo sapiens, UniProt P21554); assay: Displacement of [3H]-CP55940 from human recombinant cannabinoid CB1 receptor expressed in HEK cells by Cheng-Prusoff analysis; assay type: cell-based
# MCF-10A = assay: Antiproliferative activity against human MCF-10A cells incubated for 24 hrs by MTT assay; assay type: functional, cell-based
# MDA-MB-231 [29] = assay: Antitumor activity against human MDA-MB-231 cells xenografted in nude mouse assessed as reduction in tumor volume at 70 mg/kg, ip administered for 15 days (reference value: 550 +/- 98.6 mm3); assay type: functional; conditions: time 15 day
# [30] = Plasma clearance in rat; assay type: ADME
# Integrin alpha-4/beta-1 = Integrin alpha-4/beta-1 (Homo sapiens, UniProt P05556+P13612); assay: Displacement of 125I-VCAM-Ig from VLA4 in human Jurkat cells incubated for 30 mins by scintillation counting method; assay type: cell-based
# [31] = Oral bioavailability in Sprague-Dawley rat at 2 mg/kg; assay type: ADME, organism-based; conditions: in vivo
# T1 sequence (P32300 whole entry): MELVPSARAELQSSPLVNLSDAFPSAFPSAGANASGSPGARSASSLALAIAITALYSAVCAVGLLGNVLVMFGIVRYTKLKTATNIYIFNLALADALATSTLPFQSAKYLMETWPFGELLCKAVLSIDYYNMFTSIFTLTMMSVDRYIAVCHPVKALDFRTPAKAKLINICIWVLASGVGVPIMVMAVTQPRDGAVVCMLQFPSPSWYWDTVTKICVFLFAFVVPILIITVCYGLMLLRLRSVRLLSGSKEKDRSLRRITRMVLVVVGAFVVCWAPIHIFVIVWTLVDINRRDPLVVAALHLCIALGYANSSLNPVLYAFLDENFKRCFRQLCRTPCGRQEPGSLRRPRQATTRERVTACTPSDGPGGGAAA
# Mu-type opioid receptor, sequence (P35372 whole entry): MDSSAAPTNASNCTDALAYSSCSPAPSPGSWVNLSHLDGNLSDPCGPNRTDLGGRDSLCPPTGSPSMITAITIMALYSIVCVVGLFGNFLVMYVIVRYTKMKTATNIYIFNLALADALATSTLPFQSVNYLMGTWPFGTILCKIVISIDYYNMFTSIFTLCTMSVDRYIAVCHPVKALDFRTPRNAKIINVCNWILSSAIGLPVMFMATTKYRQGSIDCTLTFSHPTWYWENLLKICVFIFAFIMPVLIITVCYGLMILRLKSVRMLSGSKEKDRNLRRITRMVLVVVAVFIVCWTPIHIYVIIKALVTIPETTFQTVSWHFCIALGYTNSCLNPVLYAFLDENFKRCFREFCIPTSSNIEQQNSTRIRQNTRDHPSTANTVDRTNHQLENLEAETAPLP
# Gastrin/cholecystokinin type B receptor (Homo sapiens), sequence (P32239 whole entry): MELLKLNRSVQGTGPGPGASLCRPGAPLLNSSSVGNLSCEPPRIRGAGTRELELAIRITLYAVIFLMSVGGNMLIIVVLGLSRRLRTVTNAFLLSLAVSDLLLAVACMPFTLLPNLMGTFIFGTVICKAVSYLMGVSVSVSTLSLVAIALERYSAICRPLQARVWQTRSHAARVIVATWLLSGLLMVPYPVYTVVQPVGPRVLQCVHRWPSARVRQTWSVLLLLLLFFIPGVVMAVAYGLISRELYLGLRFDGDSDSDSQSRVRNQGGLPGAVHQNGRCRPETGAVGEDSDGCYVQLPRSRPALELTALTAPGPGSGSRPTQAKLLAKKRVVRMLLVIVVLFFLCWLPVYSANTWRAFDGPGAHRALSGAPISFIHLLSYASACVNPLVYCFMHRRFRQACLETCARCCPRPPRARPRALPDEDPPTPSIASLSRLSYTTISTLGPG
# T2 sequence (Q8NER1 whole entry): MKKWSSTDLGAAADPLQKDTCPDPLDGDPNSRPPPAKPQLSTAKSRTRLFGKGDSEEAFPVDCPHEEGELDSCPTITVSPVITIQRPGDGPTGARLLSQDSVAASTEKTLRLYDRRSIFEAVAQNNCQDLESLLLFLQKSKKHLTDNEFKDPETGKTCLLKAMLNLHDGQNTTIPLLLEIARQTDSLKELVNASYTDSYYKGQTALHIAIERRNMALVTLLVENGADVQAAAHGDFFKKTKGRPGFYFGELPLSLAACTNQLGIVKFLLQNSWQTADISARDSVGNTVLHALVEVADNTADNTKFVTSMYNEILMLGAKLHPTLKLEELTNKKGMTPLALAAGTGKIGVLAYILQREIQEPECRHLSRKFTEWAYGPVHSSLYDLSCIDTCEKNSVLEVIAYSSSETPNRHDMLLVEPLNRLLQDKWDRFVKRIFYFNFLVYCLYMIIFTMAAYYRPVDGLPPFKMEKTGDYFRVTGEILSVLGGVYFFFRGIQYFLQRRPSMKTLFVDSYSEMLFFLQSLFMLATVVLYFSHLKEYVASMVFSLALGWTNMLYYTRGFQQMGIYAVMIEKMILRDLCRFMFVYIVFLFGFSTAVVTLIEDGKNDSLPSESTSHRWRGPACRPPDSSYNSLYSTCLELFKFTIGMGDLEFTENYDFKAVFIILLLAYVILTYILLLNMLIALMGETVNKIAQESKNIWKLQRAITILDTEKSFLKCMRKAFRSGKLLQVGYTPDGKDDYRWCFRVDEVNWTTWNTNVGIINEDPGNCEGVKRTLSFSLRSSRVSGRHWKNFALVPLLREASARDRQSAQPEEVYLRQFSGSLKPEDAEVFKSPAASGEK
# Kappa-type opioid receptor, sequence (P41145 whole entry): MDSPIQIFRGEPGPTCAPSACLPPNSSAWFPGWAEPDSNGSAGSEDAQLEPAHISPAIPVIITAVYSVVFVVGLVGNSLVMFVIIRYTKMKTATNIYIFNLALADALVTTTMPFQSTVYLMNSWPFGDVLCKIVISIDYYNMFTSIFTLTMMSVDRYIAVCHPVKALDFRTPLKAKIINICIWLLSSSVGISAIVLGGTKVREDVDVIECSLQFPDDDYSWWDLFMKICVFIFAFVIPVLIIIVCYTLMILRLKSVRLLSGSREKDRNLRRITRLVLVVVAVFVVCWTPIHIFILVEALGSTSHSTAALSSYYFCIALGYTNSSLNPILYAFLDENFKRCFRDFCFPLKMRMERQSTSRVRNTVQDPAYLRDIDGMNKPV
# Neprilysin, sequence (P08473 whole entry): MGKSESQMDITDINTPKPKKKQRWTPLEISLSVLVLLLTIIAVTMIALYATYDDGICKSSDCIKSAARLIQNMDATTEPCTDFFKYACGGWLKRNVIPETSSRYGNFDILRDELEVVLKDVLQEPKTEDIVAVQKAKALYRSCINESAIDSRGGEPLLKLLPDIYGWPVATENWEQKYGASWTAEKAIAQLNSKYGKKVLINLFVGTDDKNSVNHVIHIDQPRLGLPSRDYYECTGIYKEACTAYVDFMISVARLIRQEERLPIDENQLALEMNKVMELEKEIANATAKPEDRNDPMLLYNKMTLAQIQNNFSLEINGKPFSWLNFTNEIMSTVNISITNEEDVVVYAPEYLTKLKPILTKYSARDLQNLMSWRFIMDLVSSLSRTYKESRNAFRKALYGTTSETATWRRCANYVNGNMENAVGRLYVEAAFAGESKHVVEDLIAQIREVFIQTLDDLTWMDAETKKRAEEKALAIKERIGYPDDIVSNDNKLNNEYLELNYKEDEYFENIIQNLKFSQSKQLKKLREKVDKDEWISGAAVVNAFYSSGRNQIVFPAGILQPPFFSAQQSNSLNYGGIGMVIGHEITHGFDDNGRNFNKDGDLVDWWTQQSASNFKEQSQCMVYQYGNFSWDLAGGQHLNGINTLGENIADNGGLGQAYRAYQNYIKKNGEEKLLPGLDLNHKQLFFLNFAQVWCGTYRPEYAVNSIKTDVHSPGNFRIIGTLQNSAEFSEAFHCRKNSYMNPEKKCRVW
# Delta-type opioid receptor (Homo sapiens, UniProt P41143), sequence (P41143 whole entry): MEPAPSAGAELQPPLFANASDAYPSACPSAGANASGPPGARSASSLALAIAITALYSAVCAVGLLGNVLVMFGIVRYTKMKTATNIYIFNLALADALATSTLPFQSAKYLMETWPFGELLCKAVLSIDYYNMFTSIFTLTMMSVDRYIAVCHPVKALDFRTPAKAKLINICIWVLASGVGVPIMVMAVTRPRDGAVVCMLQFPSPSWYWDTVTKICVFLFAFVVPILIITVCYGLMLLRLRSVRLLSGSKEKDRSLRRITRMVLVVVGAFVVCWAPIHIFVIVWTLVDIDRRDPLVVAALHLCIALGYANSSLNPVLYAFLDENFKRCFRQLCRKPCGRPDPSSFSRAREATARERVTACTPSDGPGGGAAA
# Gastrin/cholecystokinin type B receptor, sequence (P32239 whole entry): as the sequence (P32239 whole entry) above
# Cholecystokinin receptor type A, sequence (Q63931 whole entry): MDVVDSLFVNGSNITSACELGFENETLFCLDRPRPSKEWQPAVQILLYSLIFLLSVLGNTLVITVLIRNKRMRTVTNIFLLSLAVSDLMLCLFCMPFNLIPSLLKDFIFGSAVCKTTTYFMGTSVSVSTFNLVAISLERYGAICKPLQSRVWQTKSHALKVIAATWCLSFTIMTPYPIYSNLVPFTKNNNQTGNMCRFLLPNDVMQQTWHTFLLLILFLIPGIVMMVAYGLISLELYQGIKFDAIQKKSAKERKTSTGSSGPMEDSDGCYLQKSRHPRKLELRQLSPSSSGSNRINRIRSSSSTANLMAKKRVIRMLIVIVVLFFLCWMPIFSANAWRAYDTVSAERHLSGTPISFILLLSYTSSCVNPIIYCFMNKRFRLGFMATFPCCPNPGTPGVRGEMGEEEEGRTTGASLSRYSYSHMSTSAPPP
# Interstitial collagenase, sequence (P03956 whole entry): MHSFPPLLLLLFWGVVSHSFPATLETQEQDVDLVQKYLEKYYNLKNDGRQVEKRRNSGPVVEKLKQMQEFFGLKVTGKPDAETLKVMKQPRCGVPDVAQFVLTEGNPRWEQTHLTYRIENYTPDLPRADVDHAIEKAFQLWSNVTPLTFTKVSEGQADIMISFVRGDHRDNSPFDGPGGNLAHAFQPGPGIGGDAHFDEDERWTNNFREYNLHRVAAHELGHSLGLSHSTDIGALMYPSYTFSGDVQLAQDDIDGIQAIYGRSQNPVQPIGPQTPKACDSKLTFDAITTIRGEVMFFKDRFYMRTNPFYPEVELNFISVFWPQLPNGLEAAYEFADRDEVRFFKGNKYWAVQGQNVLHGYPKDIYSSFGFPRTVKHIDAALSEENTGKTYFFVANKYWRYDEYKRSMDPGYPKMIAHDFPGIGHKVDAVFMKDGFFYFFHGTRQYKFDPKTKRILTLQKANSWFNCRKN
# Protein-S-isoprenylcysteine O-methyltransferase, sequence (O60725 whole entry): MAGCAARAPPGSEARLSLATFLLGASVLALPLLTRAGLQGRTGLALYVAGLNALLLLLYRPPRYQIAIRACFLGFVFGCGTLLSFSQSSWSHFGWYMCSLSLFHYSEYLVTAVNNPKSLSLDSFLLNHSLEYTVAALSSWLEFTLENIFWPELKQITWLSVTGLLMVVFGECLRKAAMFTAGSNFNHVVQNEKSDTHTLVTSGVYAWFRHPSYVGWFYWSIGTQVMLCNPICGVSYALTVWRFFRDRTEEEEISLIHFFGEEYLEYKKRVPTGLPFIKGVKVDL
structure (smiles),measurement,setting,value
CC(C)C[C@H](NC(=O)[C@H](Cc1ccccc1)NC(=O)CNC(=O)CN[C@H]([C@@H](N)Cc1ccc(O)cc1)C(F)(F)F)C(=O)O,EC50,[1],> 10000 nM
same,EC50,Mu-type opioid receptor,> 10000 nM
same,EC50,[2],> 10000 nM
CCCCCCCCCCCCCCCCS(=O)(=O)N[C@@H](CO)[C@H](O)/C=C/c1ccc(Cl)cc1,IC50,A549,96000 nM
same,IC50,HeLa,65000 nM
same,IC50,CAKI-2,103000 nM
same,IC50,HL-60 [3],28000 nM
same,IC50,PC-3 [4],123000 nM
CC(C)C[C@H](NC(=O)[C@@H](/C=C(\F)CNC(=O)CNC(=O)[C@@H](N)Cc1ccc(O)cc1)Cc1ccccc1)C(=O)O,Ki,[5],43 nM
O=C(N[C@@H](Cc1ccccc1)[C@@H](O)C[C@@H](Cc1ccccc1)C(=O)N[C@H]1c2ccccc2C[C@H]1O)O[C@H]1CCOC1,IC95,[6],3 nM
same,IC50,[7],< 0.03 nM
CC(C)C[C@H](N)CNC(=O)[C@H](CC(C)C)NC(=O)[C@H](Cc1cnc[nH]1)NC(=O)CNC(=O)[C@@H](NC(=O)[C@H](C)NC(=O)[C@H](Cc1c[nH]c2ccccc12)NC(=O)[C@H](CCC(N)=O)NC(=O)[C@H](N)Cc1ccccc1)C(C)C,IC50,[8],68.7 nM
CC(C)C[C@H](NC(=O)[C@H](Cc1ccccc1)NC(=O)CNC(=O)CN[C@@H]([C@@H](N)Cc1ccc(O)cc1)C(F)(F)F)C(=O)O,EC50,[1],> 10000 nM
same,EC50,Mu-type opioid receptor,> 10000 nM
same,EC50,[2],> 10000 nM
CC(C)C[C@H](NC(=O)OC(C)(C)C)C(=O)NCC(=O)N[C@@H](Cc1c[nH]c2ccccc12)C(=O)N[C@@H](CC(C)C)C(=O)N[C@@H](CC(=O)O)C(=O)N[C@@H](Cc1ccccc1)C(N)=O (Boc-LGWLDF-NH2),Emax,[9],99%
same,IC50,[10],54 nM
same,IC50,[11],1600 nM
same,EC50,[12],40 nM
CCCCCCCCCCCCCCCCC(=O)Nc1c(C)cccc1C,Activity,Rattus norvegicus,38%
same,IC50,[13],43 nM
CC(C)C[C@H](NC(=O)[C@H](Cc1ccccc1)NC(=O)CNC(=O)C/C=C(\F)[C@@H](N)Cc1ccc(O)cc1)C(=O)O,half-life at 50 µM,[14],4 h
same,half-life at 50 µM,[15],4 h
CC(C)=CCC/C(C)=C/CC/C(C)=C/CSC[C@H](NC(=O)c1ccccc1Oc1ccccc1)C(=O)O,IC50,[16],4300 nM
CSCC[C@H](NC(=O)[C@H](Cc1c[nH]c2ccccc12)NC(=O)OC(C)(C)C)C(=O)N[C@@H](CC(=O)O)C(=O)N[C@@H](Cc1ccccc1)C(N)=O,Emax,[9],99%
same,IC50,[10],25 nM
CCCCCCCCCCCCCCCCCNC(=O)Nc1c(C)cccc1C,Activity,Rattus norvegicus,55%
same,IC50,[13],160 nM
Cc1nnc2n1-c1ccc(Cl)cc1C(c1ccccc1)=NC2 [ALPRAZOLAM],half-life,clinical,6.3 h
CC(C)C[C@H](N)/C=C/NC(=O)[C@H](CC(C)C)NC(=O)[C@H](Cc1cnc[nH]1)NC(=O)CNC(=O)[C@@H](NC(=O)[C@H](C)NC(=O)[C@H](Cc1c[nH]c2ccccc12)NC(=O)[C@H](CCC(N)=O)NC(=O)[C@H](N)Cc1ccccc1)C(C)C,IC50,[8],6.7 nM
CCCCCCCCCCCCCC(=O)N[C@@H](CO)[C@H](O)c1ccc([N+](=O)[O-])cc1,IC50,HT-29,96000 nM
same,IC50,A549,64000 nM
same,IC50,HeLa,78000 nM
same,IC50,CAKI-2,107000 nM
same,IC50,PC-3 [17],83000 nM
same,IC50,HL-60 [18],28000 nM
same,IC50,HL-60 [3],48000 nM
same,IC50,PC-3 [4],123000 nM
CC(C)C[C@@H](C(=O)O)N(C)C(=O)[C@H](Cc1ccccc1)NC(=O)CNC(=O)CNC(=O)[C@@H](N)Cc1ccc(O)cc1,Ki,[19],12.6 nM
same,half-life,[20],0.178 h
same,EC50,[21],35 nM
C=CC[C@H](C(=O)NO)[C@@H](CC(C)C)C(=O)N[C@@H](Cc1ccc2c(c1)CCC2)C(=O)NC,IC50,Interstitial collagenase,2.2 nM
same,IC50,Matrilysin,11 nM
same,IC50,[22],1.8 nM
same,bioavailability,[23],0%
same,half-life,[24],0.35 h
same,IC50,Stromelysin-1,12 nM
CC(C)Oc1ccccc1CNC(=O)Nc1ccc2cnccc2n1,IC50,Human betaherpesvirus 5,0.03 µg/mL
O=C(O)CC(=O)N[C@H](CS)Cc1ccccc1,Ki,Neprilysin,210 nM
O=C(O)CC(=O)N[C@@H](CS)Cc1ccccc1,Ki,Neprilysin,2.3 nM
COc1cc(CNC(=O)CCCC/C=C/C(C)C)ccc1O [CAPSAICIN],Activity,MDA-MB-231 [25],281.3 mm3
same,IC50,MDA-MB-231 [26],120000 nM
CCCCCCCc1cn(Cc2cc(OC)c(O)cc2I)nn1,EC50,[27],> 10000 nM
same,Ki,[28],0.69 nM
same,Ki,Cannabinoid receptor 1,440 nM
CCCCS(=O)(=O)NCc1ccc2c(c1)OCO2,IC50,MCF-10A,198000 nM
same,Activity,MDA-MB-231 [29],133.4 mm3
same,IC50,MDA-MB-231 [26],87000 nM
CC[C@@]1(C(=O)N[C@@H](Cc2ccc(-c3c(OC)cccc3OC)cc2)C(=O)O)CCN1S(=O)(=O)c1ccccc1,clearance,[30],110 mL/min/kg
same,IC50,Integrin alpha-4/beta-1,0.07 nM
same,bioavailability,[31],< 10%
CC(C)C[C@H](OC(=O)[C@H](Cc1ccccc1)NC(=O)CNC(=O)CNC(=O)[C@@H](N)Cc1ccc(O)cc1)C(=O)O (H-YGGF-{Hica(2S)}),Ki,[19],11.9 nM
same,half-life,[20],0.055 h
same,EC50,[21],140 nM

# — ChEMBL document CHEMBL4732045, “Amide Bond Bioisosteres: Strategies, Synthesis, and Successes” (J Med Chem, 2020)
